Experimental data: patent US11150234B2, “Method for evaluating taxic behavior in response to odor substance based on olfactory sense in nematodes, and dish and behavior evaluation system used in evaluation method” (priority 2016, dated 2021)

Columns and labels:
[1] = tested on: wild type C. elegans; assay: Taxic behavior evaluation through olfactory sense using 5 cm×2 cm rectangular dish, without nematicide; format: in vivo, Caenorhabditis elegans; conditions: for taxis index: 10 minutes after dissemination, 1 μL isoamyl alcohol diluted 1000-fold with water or 1 μL nonanone stock solution, average of 5 experiments
Method: First, a rectangular dish having a bottom surface of 5 cm×2 cm was fabricated as an example (see FIGS. 1A and B). Nematodes were disseminated into a region defined by two lines at the center of the rectangular dish in the longitudinal direction, and an attractant or a repellent was applied to the region at the left end. […] In this example, isoamyl alcohol was used as an attractant, and nonanone was used as a repellent. Specifically, isoamyl alcohol was diluted 1000-fold with water, and 1 μL thereof was applied to the region at the left end. Further, 1 μL of the stock solution of nonanone was applied to the region at the left end. As the nematodes, wild type C. elegans (10 to 50 nematodes/experiment) were used. […] Specifically, the difference in the number of nematodes between those moved to the region (region indicated by O-mark in FIG. 4, corresponding to region 1 of the first embodiment) located between the region at the left end to which an attractant or a repellent was applied and the region at the center in the longitudinal direction in which the nematodes were disseminated and those moved to the region on the opposite side (region indicated by X-mark in FIG. 4, corresponding to region 2 of the first embodiment) was determined, and the result was divided by the number of all nematodes to determine the taxis index. Taxis Index (Taxis index)={(the number of nematodes in region indicated by symbol “O”)−(the number of nematodes in region indicated by symbol “X”)}/the number of all nematodes The experiment was repeated 5 times, to determine the average of taxis indices and SEM. The taxic behavior was evaluated in the same manner as in Example 1 except that urine (1/20 dilution) of a cancer patient or urine (1/20 dilution) of a healthy individual was used as an attractant or a repellent. […] Urine obtained from a plurality of different cancer patients was used.

[2] = tested on: N2 Bristol strains; assay: Taxic behavior evaluation system of third embodiment (5 cm×2 cm×1 mm recess in solid medium covered with plate); format: in vivo, Caenorhabditis elegans; conditions: 23° C., IAA diluted 10^−5-fold
Method: The taxic behavior based on olfactory sense was evaluated using N2 Bristol strains that are nematode strains. […] After a reagent was mixed using the culture medium composition of the assay plate, followed by autoclaving, an appropriate amount of the reagent was poured into a 9 cm dish, and the solid medium was solidified by cooling while pressing a plastic plate of 5 cm×2 cm×1 mm against the surface. After the solid medium was solidified, the plastic plate was removed, to form a recess with a length of 5 cm, a width of 2 cm, and a depth of 1 mm on the surface of the solid medium. Then, isoamyl alcohol (IAA) diluted 10^-5-fold or nonanone (Nona) diluted 10^-3-fold was arranged at the position shown by the symbol “+” on the right side of FIG. 13, and nematodes cultured at 20° C. for 4 days were arranged at the center (which corresponded to region B in FIG. 13). Thereafter, the taxic behavior of nematodes at 23° C. was observed. The number of nematodes in the regions corresponding to regions A, B, and C in FIG. 13 were counted after a lapse of 0 minutes, 5 minutes, 10 minutes, and 20 minutes. The number of nematodes remaining was calculated as a ratio of the number of nematodes in response to the number of nematodes at 0 minutes at each time. Further, the taxis index was calculated based on the formula [[…])]. Here, N (A) is the number of nematodes that moved to region A, and N (B) is the number of nematodes that moved to region B.

[3] = at 5 minutes, nonanone diluted 10^−3-fold

In the case of `CC(C)CCO` [isoamyl alcohol], the taxis index [1] is reported as “over 0.8”, the “nematodes showing attraction behavior in response to the attractant” value ([1]; 10 minutes, from taxis index) is reported as at least 90% and the taxic behavior observed [2, 3] is reported as “migration behavior”. The taxic behavior observed ([2]; at 20 minutes) was “migration behavior”.

For `CCCCCCCC(C)=O` [nonanone], the taxis index [1] was “below −0.8”, the “nematodes showing avoidance behavior in response to the repellent” value ([1]; 10 minutes, from taxis index) was at least 90% and the taxic behavior observed [2, 3] was “avoidance behavior”.
